{"source": "patent US20220323536A1", "about": "“USE OF BETA-L-ASPARTYL-L-ARGININE ON SENESCENT SKIN” (SYMRISE AG, priority 2019, published 2022)", "key": {"senescent fibroblasts [1]": {"tested_on": "senescent fibroblasts", "assay": "Reduction of mitochondrial ROS in senescent fibroblasts (in vitro study)", "format": "cell-based", "experimental": "Using a fluorescent dye, the antioxidative potential of β-L-aspartyl-L-arginine with respect to mitochondrial reactive oxygen species (ROS) was quantified. Senescent cells were incubated with β-L-aspartyl-L-arginine for 24 hours. Subsequently, the treated and non-treated senescent cells as well as the treated and non-treated non-senescent cells were incubated with the fluorescent dye for 30 minutes at 37° C. After washing, a portion of the non-senescent cells was treated with the oxidative reference substance H2O2 (100 μM). The mitochondrial ROS production was measured immediately every 5 mins over a period of 60 minutes. A microtiter plate reader (Varioskan-Thermo) was used as measuring device. During the kinetic measurement, the cells were further incubated at 37° C. Using fluorimetry, the antioxidative activity was measured in parallel with the viability of the cell. The experiments comprised a blank as well as a negative and a positive control. The positive control consists of […]. […] Senescent cells treated with resveratrol were used as reference for the comparison of the activity of β-L-aspartyl-L-arginine in the decrease of endogenous production of mitochondrial ROS in senescent cells. β-L-aspartyl-L-arginine was measured in a 4-fold measurement. […]"}, "senescent fibroblasts [2]": {"tested_on": "senescent fibroblasts", "assay": "Reduction of cell size in senescent fibroblasts (in vitro study)", "format": "cell-based", "conditions": "amounts of more than 1.0 mM, vs untreated senescent fibroblasts; FIG. 3", "experimental": "(§1) Senescent cells were incubated with β-L-aspartyl-L-arginine. Cell size and nuclear size were measured while cell density reflects the viability. […] See example 4 for the details of experimental procedure.\n(§2) The cells were treated with β-L-aspartyl-L-arginine for 5 days. The cell images were taken after incubation. In order to label the nuclear and mitochondrial DNA, the cells were incubated with a fluorescent dye for 30 minutes. After removal of the dye, the images were taken with an epifluorescence microscope. Image analysis was performed in a 3-fold determination. Sampling 10 pictures per experimental condition or repetition, respectively.\n(§3) Data collection: The images were taken with a Zeiss axioplan microscope. Image analysis was performed with a software developed by ICDD.\n(§4) Data interpretation: The following data was collected: average cell size, mtDNA content, mitochondrial density, mitochondrial biogenesis, mitochondrial mass and cell nucelus size. The average cell number per field was used as control of cell viability for each experimental condition. The effect of active substances was also given as protective effect in comparison to non-treated cells. The effect of the positive control was included for comparison."}, "senescent fibroblasts [3]": {"tested_on": "senescent fibroblasts", "assay": "Reduction of nucleus to cell size (N/C) ratio in senescent fibroblasts (in vitro study)", "format": "cell-based", "conditions": "vs untreated senescent fibroblasts; FIG. 4", "experimental": "as §1, §2, §3, §4"}, "senescent fibroblasts [4]": {"tested_on": "senescent fibroblasts", "assay": "Reduction of mitochondrial DNA (mtDNA) in senescent fibroblasts (in vitro study)", "format": "cell-based", "conditions": "5 days treatment; FIG. 5", "experimental": "Disruptions of the nuclear and mitochondrial DNA were studied, analyzed by detecting nucleus fragments, the mitochondrial DNA content, the mitochondrial mass and the average cell density, the latter as representation of viability.\nas §2, §3, §4"}, "human skin explants [5]": {"tested_on": "human skin explants", "assay": "Reduction of ROS score after UVA irradiation on human skin explants (ex vivo study)", "format": "cell-based", "conditions": "topical, 18 h incubation, vs untreated UV irradiated skin, FIG. 6", "from_the_text": "Cultivation of skin models: The skin was cut into about 8×3 mm large pieces (diameter×layer thickness of the models) and cultivated until the planned end of the experiment. Per treatment, six models each were used. The skin models were cultivated as air-liquid-interface cultures in a perforated stainless steel ring with contact to the culture medium (modified Williams 'E Medium) until the desired endpoint.\nTreatment: Test substances and controls were applied topically. To this end, the skin models were carefully cleaned with a cotton pad. Subsequently, 4 μL of each test substance or the control, respectively, were applied to the models and covered with a membrane filter (diameter=6 mm).\nThe skin models were incubated for 18 h with test substance and positive control, respectively. […]\nUV-irradiation: The used sun simulator was a BIO-SUN-system from the company Vilber Lourmat. […] The UV-light emission is constantly monitored and the system stops automatically when the pre-set energy quantity is reached. […]\nOf each skin model, two samples were used for image capture with the fluorescence analysis. Each picture was analyzed by determining the fluorescence using Image-J analysis software (NIH, USA). The measured values were normalized over the size of the selected surface.\nStatistics: For each treatment of the skin models, the averages of the quantitative data was determined. […]"}, "fibronectin": {"tested_on": "fibronectin", "assay": "Stimulation of fibronectin proteins in the dermis (ex vivo study)", "format": "cell-based", "conditions": "4 μl topically every day during 6 days, vs untreated skin; FIG. 7", "experimental": "(§5) 4 μl of β-L-aspartyl-L-arginine were applied on the skin every day during 6 days of treatment at 37° C., 5% CO2 and 100% humidity. 12 skin cuts were immunohistochemically stained with selected antibodies. The papillary dermis was selected for the analysis because it is the part of the dermis, which changes the most in reaction to a previous treatment.\n(§6) The area to be analyzed was carefully selected while it was made sure that irregular structures such as blood vessels, sweat glands or hair follicles were avoided.\n(§7) For the assessment of the results, both, the color intensity and the color distribution were measured using Image-J analysis software (NIH, USA)—thus a semi-quantitative assessment was possible."}, "collagen Typ III": {"tested_on": "collagen Typ III", "assay": "Stimulation of collagen Type III (ex vivo study)", "format": "cell-based", "conditions": "vs untreated skin; FIG. 12", "experimental": "as §5, §6, §7"}, "[6]": {"assay": "Reduction of wrinkle intensity (clinical study)", "format": "in vivo, human", "experimental": "(§8) The study was conducted with 26 female volunteers of age 53 +/−3 years. The application was done twice daily for two months. On one side of the face, the product is applied, on the other side the placebo.\nImaging: The evaluation is based on high-resolution digital photography under controlled conditions. Pictures were taken at the start of the study, after 28 days and after 56 days of product application.\nThe subjects were positioned in front of the optical arrangement and the face was photographed as portrait or close-up. The persons were photographed seated at controlled lighting. The conditions were kept constant during all photographs to ensure comparability.\nReduction of wrinkles and lines: The assessment of wrinkles and lines was done in a limited area around the eye of the subject. The intensity of the wrinkles and lines was measured as parameter R. The larger the value for R, the more pronounced are the wrinkles and lines. The relative reduction of wrinkles is calculated according to the following formula:\nR%=100(Ri−RF)/Ri(R=wrinkle intensity, i=initial; f=final)\nData analysis and interpretation: For data analysis the following software packages were used: […]"}, "human skin explants [7]": {"tested_on": "human skin explants", "assay": "Protection against carbonylation of proteins (ex vivo study)", "format": "cell-based", "conditions": "UV stimulated skin treated with 0.2% and 0.5%, vs untreated UV stimulated skin; FIG. 9", "experimental": "Detection of carbonylation: After removing the fatty and connective tissue, the frozen skin samples are weighed and cut. The skin pieces of the tested samples are combined and homogenized in a cold extraction buffer. Cell lysates are collected by centrifugation.\nThe measurement of the carbonylated protein is performed with the “OxyBlot Protein_Oxidation Kit by Millipore”, (#S7150) according to the protocol of the producer. Only the protein bands of a size between 50 kDa and 150 kDa were taken into account for the calculation. The obtained amount of carbonylated protein is normalized with the actin band (which is constant) and given with respect to the non-treated sample."}, "[8]": {"assay": "Improvement of skin firmness and elasticity (clinical study, cutometer)", "format": "in vivo, human", "experimental": "as §8\nThe method of measurement relies on suction. A vacuum is created in the gauge head of the cutometer, which sucks the skin into the measuring device. An optical arrangement, consisting of a light source and a light detector, measures the light intensity, which enters dependent on how much skin is sucked in. The resulting parameters are elasticity and skin firmness.\nSkin firmness represents the resistance, which the skin creates against the suction by the vacuum. Elasticity, is the time, which the skin needs to return to its original state."}, "[9]": {"assay": "Solubility and stability of the powder", "format": "physicochemical"}, "[10]": {"conditions": "after eight weeks, twice daily use of 0.1%"}}, "data": [{"molecule": "N=C(N)NCCC[C@H](NC(=O)C[C@H](N)C(=O)O)C(=O)O", "note": "[β-L-aspartyl-L-arginine]", "values": [{"measurement": "mitochondrial ROS (mtROS)", "setting": "senescent fibroblasts [1]; 10 μM, 24 hours incubation, senescent cells vs non-treated senescent cells, FIG. 1", "value": "significant reduction of mitochondrial ROS"}, {"measurement": "dosage dependence of the mtROS reduction effect", "setting": "senescent fibroblasts [1]; values with respect to untreated senescent cells = 100%, FIG. 2", "value": "Increasing amounts of β-L-aspartyl-L-arginine show a larger reduction"}, {"measurement": "cell size of senescent fibroblasts", "setting": "senescent fibroblasts [2]", "value": "reduce cell size"}, {"measurement": "nucleus to cell size ratio in senescent fibroblasts", "setting": "senescent fibroblasts [3]", "value": "reduced compared to untreated senescent fibroblasts"}, {"measurement": "mtDNA in senescent cells", "setting": "senescent fibroblasts [4]", "value": "reduced by β-L-aspartyl-L-arginine to an amount comparable to young replicative cells"}, {"measurement": "ROS score of UV irradiated skin (dermis)", "setting": "human skin explants [5]", "value": "significantly reduces the ROS score"}, {"measurement": "fibronectin production in the dermis", "setting": "fibronectin", "value": "stimulate the fibronectin production"}, {"measurement": "collagen Typ III production", "setting": "collagen Typ III", "value": "stimulate the collagen Typ III production"}, {"measurement": "volunteers with significant reduction of wrinkle intensity", "setting": "[6]; [10]", "value": 85, "unit": "%"}, {"measurement": "reduction of wrinkle intensity compared to a placebo", "setting": "[6]; after eight weeks, twice daily use of 0.1%, 26 female volunteers", "value": 6.8, "unit": "%"}, {"measurement": "wrinkles and fine lines on crow feet", "setting": "[6]; four weeks of twice daily use of 0.1%, FIG. 8", "value": "visibly smoothes wrinkles and fine lines"}, {"measurement": "formation of carbonylated proteins", "setting": "human skin explants [7]", "value": "prevent the formation of carbonylated proteins"}, {"measurement": "enhancement of skin elasticity compared to the placebo", "setting": "[8]; [10]", "value": "+8.5%"}, {"measurement": "enhancement of skin firmness compared to the placebo", "setting": "[8]; [10]", "value": "+10.1%"}, {"measurement": "volunteers with significant enhancement of skin elasticity", "setting": "[8]; [10]", "value": 100, "unit": "%"}, {"measurement": "volunteers with significant enhancement of skin firmness", "setting": "[8]; [10]", "value": 92, "unit": "%"}, {"measurement": "skin firmness", "setting": "[8]; four weeks of twice daily use of 0.1%, FIG. 10", "value": "visibly improves skin firmness"}, {"measurement": "skin elasticity", "setting": "[8]; four weeks of twice daily use of 0.1%, FIG. 11", "value": "visibly improves skin elasticity"}, {"measurement": "stability", "setting": "[9]; pH from 5 to 9, up to 50° C.", "value": "stable at a pH from 5 to 9 at up to 50 °C"}, {"measurement": "water solubility", "setting": "[9]; white, odorless powder", "value": "water soluble"}]}]}
